Biological target: T1, recombinant human CCR5 receptor (Homo sapiens, UniProt P51681)
T1 construct: expressed in transfected cells; host or cells: Chinese hamster ovary (CHO) cells; membranes
Assay: Radioligand binding assay for inhibition of the binding of MIP-1α
Conditions: displacement of 0.1 nM iodinated MIP-1α; membranes of Chinese hamster ovary cells expressing CCR5
Protocol: Biological Assay for the Ability of Compounds to Inhibit the Binding of MIP-1α This ability is assessed using an in vitro radioligand binding assay. Membranes are prepared from Chinese hamster ovary cells which express the recombinant human CCR5 receptor. These membranes are incubated with 0.1 nM iodinated MIP-1α, scintillation proximity beads and various concentrations of the compounds of the invention in 96-well plates. The amount of iodinated MIP-1α bound to the receptor is then determined by scintillation counting.

T1 sequence (P51681 whole entry): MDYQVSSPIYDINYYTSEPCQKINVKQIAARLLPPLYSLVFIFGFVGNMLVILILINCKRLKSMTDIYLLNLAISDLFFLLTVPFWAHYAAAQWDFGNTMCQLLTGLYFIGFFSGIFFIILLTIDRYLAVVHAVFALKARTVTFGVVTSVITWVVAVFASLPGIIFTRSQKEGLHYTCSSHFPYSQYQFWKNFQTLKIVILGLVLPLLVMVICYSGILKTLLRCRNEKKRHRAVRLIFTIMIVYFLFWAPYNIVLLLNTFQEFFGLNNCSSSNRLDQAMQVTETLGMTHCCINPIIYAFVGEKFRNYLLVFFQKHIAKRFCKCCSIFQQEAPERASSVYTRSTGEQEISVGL

IC50, < 10 µM:
O=C(Nc1ccc(Cl)c(Cl)c1)N1CCN(C[C@@H]2CCCN(Cc3ccc(N4CCOCC4)nc3)C2)CC1 [Example 255, N-(3,4-dichlorophenyl)-4-[[(3R)-1-[(6-morpholin-4-ylpyridin-3-yl)methyl]-3-piperidyl]methyl]piperazine-1-carboxamide]
Cc1ccc(NC(=O)N2CCN(C[C@@H]3CCCN(C4CC4)C3)CC2)cc1Cl [Example 110, N-(3-chloro-4-methylphenyl)-4-{[(3S)-1-cyclopropylpiperidin-3-yl]methyl}piperazine-1-carboxamide]
CCCC(C)N1CCN[C@@H](C(=O)N2CCN(C(=O)Nc3ccc(Cl)c(Cl)c3)CC2)C1 (stereo partly drawn) [Example 270, N-(3,4-dichlorophenyl)-4-{[(2R)-4-(1-methylbutyl)piperazin-2-yl]carbonyl}piperazine-1-carboxamide]
Cc1ccc(NC(=O)N2CCN(C[C@H]3CN(C(C)C)CCO3)CC2)cc1Cl [Example 187, N-(3-chloro-4-methylphenyl)-4-{[(2S)-4-isopropylmorpholin-2-yl]methyl}piperazine-1-carboxamide]
O=C(Nc1ccccc1)N1CCN(C[C@@H]2CCCN(CCc3ccc(F)cc3)C2)CC1 [Example 248, 4-[[(3R)-1-[2-(4-fluorophenyl)ethyl]-3-piperidyl]methyl]-N-phenyl-piperazine-1-carboxamide]
O=C(Nc1ccc(Cl)c(Cl)c1)N1CCN(C[C@@H]2CCCN(CCC3CCNCC3)C2)CC1 [Example 205, N-(3,4-Dichlorophenyl)-4-{[(3R)-1-(2-piperidin-4-ylethyl)piperidin-3-yl]methyl}piperazine-1-carboxamide]
O=C(Nc1ccc(Cl)c(Cl)c1)N1CCN(C[C@@H]2CCCN(CC(c3ccccc3)c3ccccc3)C2)CC1 [Example 153, N-(3,4-Dichlorophenyl)-4-{[(3R)-1-(2,2-diphenylethyl)piperidin-3-yl]methyl}piperazine-1-carboxamide]
COc1ccc(CN2CCC[C@@H](CN3CCN(C(=O)Nc4ccc(Cl)c(Cl)c4)CC3)C2)cc1 [Example 47, N-(3,4-dichlorophenyl)-4-{[(3R)-1-(4-methoxybenzyl)piperidin-3-yl]methyl}piperazine-1-carboxamide]
CS(=O)(=O)c1ccc(CCCN2CCC[C@@H](CN3CCN(C(=O)Nc4cccc(Cl)c4)CC3)C2)cc1 [Example 327, N-(3-Chlorophenyl)-4-[((3R)-1-{3-[4-(methylsulfonyl)phenyl]propyl}piperidin-3-yl)methyl]piperazine-1-carboxamide]
CC(=O)N1CCC(N2CCO[C@@H](CN3CCN(C(=O)Nc4ccc(Cl)c(Cl)c4)CC3)C2)CC1 [Example 120, 4-{[(2S)-4-(1-acetylpiperidin-4-yl)morpholin-2-yl]methyl}-N-(3,4-dichlorophenyl)piperazine-1-carboxamide]
O=C(Nc1ccccc1)N1CCN(C[C@@H]2CCCN(CCc3c(Cl)cccc3Cl)C2)CC1 [Example 252, 4-[[(3R)-1-[2-(2,6-dichlorophenyl)ethyl]-3-piperidyl]methyl]-N-phenyl-piperazine-1-carboxamide]
O=C(Nc1ccc(Cl)c(Cl)c1)N1CCN(C(=O)[C@H]2CN(C3CCC(O)(c4ccccn4)CC3)CCN2)CC1 (stereo partly drawn) [Example 279, N-(3,4-Dichlorophenyl)-4-{[(2R)-4-(4-hydroxy-4-pyridin-2-ylcyclohexyl)piperazin-2-yl]carbonyl}piperazine-1-carboxamide]
CC(C)N1CCN[C@@H](C(=O)N2CCN(C(=O)Nc3ccc(Cl)cc3)CC2)C1 [Example 215, N-(4-chlorophenyl)-4-{[(2R)-4-isopropylpiperazin-2-yl]carbonyl}piperazine-1-carboxamide]
O=C(Nc1ccc(Cl)c(Cl)c1)N1CCN(C[C@@H]2CCCN(Cc3cc[nH]n3)C2)CC1 [Example 34, N-(3,4-dichlorophenyl)-4-{[(3S)-1-(1H-pyrazol-3-ylmethyl)-piperidin-3-yl]methyl}piperazine-1-carboxamide]
O=C(Nc1ccc(Cl)c(Cl)c1)N1CCN(C[C@@H]2CCCN(C3CCOCC3)C2)CC1 [Example 172, N-(3,4-Dichlorophenyl)-4-{[(3S)-1-(tetrahydro-2H-pyran-4-yl)piperidin-3-yl]methyl}piperazine-1-carboxamide]
O=C(Nc1ccc(Cl)c(Cl)c1)N1CCN(C[C@H]2CCN([C@H]3CC[C@](O)(c4cccnc4)CC3)C2)CC1 [Example 228, N-(3,4-dichlorophenyl)-4-{[(3R)-1-(cis-4-hydroxy-4-pyridin-3-ylcyclohexyl)pyrrolidin-3-yl]methyl}piperazine-1-carboxamide]
CC(C)N1CCN[C@@H](C(=O)N2CCN(C(=O)Nc3ccc(C(F)(F)F)cn3)CC2)C1 [Example 311, 4-{[(2R)-4-isopropylpiperazin-2-yl]carbonyl}-N-[5-(trifluoromethyl)pyridin-2-yl]piperazine-1-carboxamide]
O=C(Nc1ccccc1)N1CCN(CC2CCCN(C3CC3)C2)CC1 (stereo in doubt) [Example 183, N-Phenyl-4-{[(3R)-1-(2-cyclopropyl)piperidin-3-yl]methyl}piperazine-1-carboxamide]
CC(C)N1CCN[C@@H](C(=O)N2CCN(C(=O)Nc3ccc(Cl)c(Cl)c3)CC2)C1 [Example 134, N-(3,4-dichlorophenyl)-4-{[(2R)-4-isopropylpiperazin-2-yl]carbonyl}piperazine-1-carboxamide]
O=C(Nc1ccc(Cl)c(Cl)c1)N1CCN(C(=O)[C@H]2CN(CCCc3ncc(F)cn3)CCN2)CC1 [Example 273, N-(3,4-dichlorophenyl)-4-({(2R)-4-[3-(5-fluoropyrimidin-2-yl)propyl]piperazin-2-yl}carbonyl)piperazine-1-carboxamide]
O=C(Nc1ccc(C(F)(F)F)cc1)N1CCN(C[C@@H]2CCCN(C3CC3)C2)CC1 [Example 111, 4-{[(3S)-1-cyclopropylpiperidin-3-yl]methyl}-N-[4-(trifluoromethyl)phenyl]piperazine-1-carboxamide]
CCC(C)N1CCN[C@@H](C(=O)N2CCN(C(=O)Nc3ccc(Cl)c(Cl)c3)CC2)C1 (stereo partly drawn) [Example 220, 4-{[(2R)-4-sec-butylpiperazin-2-yl]carbonyl}-N-(3,4-dichlorophenyl)piperazine-1-carboxamide]
O=C(Nc1ccc(Br)cc1)N1CCN(C[C@@H]2CCCN(C3CC3)C2)CC1 [Example 108, N-(4-bromophenyl)-4-{[(3S)-1-cyclopropylpiperidin-3-yl]methyl}piperazine-1-carboxamide]
Cc1ccc(NC(=O)N2CCN(C(=O)[C@H]3CN(C(C)C)CCN3)CC2)cc1F [Example 218, N-(3-fluoro-4-methylphenyl)-4-{[(2R)-4-isopropylpiperazin-2-yl]carbonyl}piperazine-1-carboxamide]

— patent US8710224B2, “Heterocyclic compounds as CCR2B antagonists” (AstraZeneca AB, priority 2004, dated 2014)
